According to publication PMC12561408, “AI‐Driven De Novo Design of Ultra Long‐Acting GLP‐1 Receptor Agonists” (Advanced Science, 2025):

What was measured:
in vivo = conditions: male, SD, rat, 0.05 mg/kg; for level at 72 h: Plasma Conc. at 72 h; for level at 96 h: Plasma Conc. at 96 h
Protocol: B) half‐life (T1/2). C) the maximum plasma concentration (Cmax). […] F) time to Maximum Concentration (Tmax). […] Data were analyzed with the two‐sided Student's unpaired t test. ^* p < 0.05, ^** p < 0.01, ^*** p < 0.001.
Plasma samples were analyzed using LC‐MS/MS (Waters XEVO TQ‐XS), and pharmacokinetic parameters such as T1/2, Cmax, Tmax, AUC0‐t, and MRT0‐t were calculated using WinNonlin. The sample preparation and detailed information of LC‐MS/MS are shown in Table S5 (Supporting Information).

[1] = rat, in vivo; cited from earlier work
Excerpt: According to a study by Novo Nordisk,^[ [39] ^] […] While the fatty acid chai ...

## CC[C@H](C)[C@H](NC(=O)[C@H](Cc1ccccc1)NC(=O)[C@H](CCC(=O)O)NC(=O)[C@H](CCCCNC(=O)COCCOCCNC(=O)COCCOCCNC(=O)CC[C@H](NC(=O)CCCCCCCCCCCCCCCCC(=O)O)C(=O)O)NC(=O)[C@H](C)NC(=O)[C@H](C)NC(=O)[C@H](CCC(N)=O)NC(=O)CNC(=O)[C@H](CCC(=O)O)NC(=O)[C@H](CC(C)C)NC(=O)[C@H](Cc1ccc(O)cc1)NC(=O)[C@H](CO)NC(=O)[C@H](CO)NC(=O)[C@@H](NC(=O)[C@H](CC(=O)O)NC(=O)[C@H](CO)NC(=O)[C@@H](NC(=O)[C@H](Cc1ccccc1)NC(=O)[C@@H](NC(=O)CNC(=O)[C@H](CCC(=O)O)NC(=O)C(C)(C)NC(=O)[C@@H](N)Cc1cnc[nH]1)[C@@H](C)O)[C@@H](C)O)C(C)C)C(=O)N[C@@H](C)C(=O)N[C@@H](Cc1c[nH]c2ccccc12)C(=O)N[C@@H](CC(C)C)C(=O)N[C@H](C(=O)N[C@@H](CCCNC(=N)N)C(=O)NCC(=O)N[C@@H](CCCNC(=N)N)C(=O)NCC(=O)O)C(C)C [Semaglutide]
In vivo; Plasma Conc. at 2 h, animal 1
  level at 2 h: 241 ng/mL
In vivo; Plasma Conc. at 2 h, animal 2
  level at 2 h: 262 ng/mL
In vivo; Plasma Conc. at 2 h, animal 3
  level at 2 h: 272 ng/mL
In vivo; Plasma Conc. at 4 h, animal 1
  level at 4 h: 308 ng/mL
In vivo; Plasma Conc. at 4 h, animal 2
  level at 4 h: 275 ng/mL
In vivo; Plasma Conc. at 4 h, animal 3
  level at 4 h: 339 ng/mL
In vivo; Plasma Conc. at 8 h, animal 1
  level at 8 h: 321 ng/mL
In vivo; Plasma Conc. at 8 h, animal 2
  level at 8 h: 327 ng/mL
In vivo; Plasma Conc. at 8 h, animal 3
  level at 8 h: 341 ng/mL
In vivo; Plasma Conc. at 12 h, animal 1
  level at 12 h: 283 ng/mL
In vivo; Plasma Conc. at 12 h, animal 2
  level at 12 h: 278 ng/mL
In vivo; Plasma Conc. at 24 h, animal 1
  level at 24 h: 133 ng/mL
In vivo; Plasma Conc. at 24 h, animal 2
  level at 24 h: 135 ng/mL
In vivo; Plasma Conc. at 48 h, animal 1
  level at 48 h: 12.9 ng/mL
In vivo; Plasma Conc. at 48 h, animal 2
  level at 48 h: 13.4 ng/mL
In vivo; animal 1
  level at 72 h: 1.5 ng/mL
  level at 96 h: 1 ng/mL
In vivo; animal 2
  level at 72 h: 1.8 ng/mL
  level at 96 h: 0.3 ng/mL
In vivo; Plasma concentration at 2 h (mean)
  level at 2 h: 258 ng/mL
In vivo; Plasma concentration at 4 h (mean)
  level at 4 h: 307 ng/mL
In vivo; Plasma concentration at 8 h (mean)
  level at 8 h: 330 ng/mL
In vivo; Plasma concentration at 12 h (mean)
  level at 12 h: 280 ng/mL
In vivo; Plasma concentration at 24 h (mean)
  level at 24 h: 132 ng/mL
In vivo; Plasma concentration at 48 h (mean)
  level at 48 h: 13.9 ng/mL
[1]
  half‐life in rats (literature): 7 to 8 h
